Data from patent publication US4839346A, “Antitumor anthracycline glycosides, intermediates thereof, and composition and use thereof” (priority 1986, dated 1989).
In brackets after ≈: the same amount, converted by molar mass. Like-named read-outs stand apart in the source and are kept apart here.

Columns and labels:
HeLa cells = assay: Cytotoxic activity in vitro, colony inhibition test after 24 hours exposure; type: cell-based; conditions: Homo sapiens
Protocol: (§1) Compound IB has been tested in comparison with daunorubicin (DNR) against HeLa and P388 cells in vitro (Table 1).
(§2) Cytotoxic activity of IB in comparison
^+ COLONY INHIBITION TEST AFTER 24 HOURS EXPOSURE TO THE DRUGS.

P388 cells = assay: Cytotoxic activity in vitro, cell counting after 48 hours exposure; type: cell-based; conditions: Mus musculus
Protocol: as §1, §2
^++ CYTOTOXICITY EVALUATED AFTER 48 HOURS EXPOSURE TO THE DRUGS BY
CELL COUNTING TECHNIQUE.

[1] = In vivo effect against disseminated Gross leukemia in C3H mice; conditions: mouse, in vivo; iv, mice with disseminated Gross leukemia; read-out: maxima tolerated dose (MxTD)
Protocol: (§3) EFFECT AGAINST GROSS LEUKEMIA^(A)
(§4) ^(A) EXPERIMENTS WERE PERFORMED IN C3H MICE, INOCULATED WITH 2 .times
(§5) 10^6 LEUKEMIA CELLS I.V.
(§6) ^(B) TREATMENT I.V. ON DAY 1 AFTER TUMOR INOCULUM.
(§7) ^(C) MEDIAN SURVIVAL TIME OF TREATED MICE/MEDIAN SURVIVAL TIME OF
(§8) ^(D) EVALUATED ON THE BASIS OF AUTOPSY FINDINGS.

[2] = tested on: disseminated Gross leukemia; assay: as above; conditions: for TOXIC DEATHS: evaluated on the basis of autopsy findings; for T/C %: median survival time treated/controls × 100
Protocol: as §3, §4, §5, §6, §7, §8

Row | Compound | IC50 (HeLa cells; 24 h, read-out: ID50) [ng/mL] | IC50 (P388 cells; P388, 48 h, read-out: ID50) [ng/mL] | MTD [1] [mg/kg] | TOXIC DEATHS ([2]; 10 mg/kg i.v. on day 1) | T/C % ([2]; 10 mg/kg i.v. on day 1 after tumor inoculum) [%] | TOXIC DEATHS ([2]; 15 mg/kg i.v. on day 1) | T/C % ([2]; 15 mg/kg i.v. on day 1 after tumor inoculum) [%] | TOXIC DEATHS ([2]; 22.5 mg/kg i.v. on day 1) | T/C % ([2]; 22.5 mg/kg i.v. on day 1 after tumor inoculum) [%] | IC50 (HeLa cells; colony inhibition test after 24 hours exposure, read-out: ID50 (the source's name)) [ng/mL] | IC50 (P388 cells; P388, cell counting after 48 hours exposure, read-out: ID50 (the source's name)) [ng/mL] | TOXIC DEATHS ([2]; 19 mg/kg i.v. on day 1) | T/C % ([2]; 19 mg/kg i.v. on day 1 after tumor inoculum) [%] | TOXIC DEATHS ([2]; 24.7 mg/kg i.v. on day 1) | T/C % ([2]; 24.7 mg/kg i.v. on day 1 after tumor inoculum) [%] | TOXIC DEATHS ([2]; 32.11 mg/kg i.v. on day 1) | T/C % ([2]; 32.11 mg/kg i.v. on day 1 after tumor inoculum) [%] | potency in vivo compared with DNR ([2]; administered iv) | activity in vivo compared with DNR ([2]; iv, at the maxima tolerated dose (32.11 mg/Kg; DNR MxTD=15 mg/Kg))
1 | COc1cccc2c1C(=O)c1c(O)c3c(c(O)c1C2=O)C[C@@](O)(C(C)=O)C[C@@H]3O[C@H]1C[C@H](N)[C@H](O)[C@H](C)O1 [DNR, daunorubicin, reference compound] | 10.5 (≈ 0.0199 µM) | 8.4 (≈ 0.0159 µM) | 15 | 0/10 | 150 | 0/10 | 183 | 2/10 | 217 |  |  |  |  |  |  |  |  |  | 
2 | COc1cccc2c1C(=O)c1c(O)c3c(c(O)c1C2=O)C[C@@](O)(C(=O)CO)C[C@@H]3O[C@H]1C[C@@H](CN)[C@@H](O)[C@H](C)O1 [IB, 3'-desamino-3'-aminomethyl-3',4'-epi-doxorubicin] |  |  | 32.1 |  |  |  |  |  |  | 6.4 (≈ 0.0115 µM) | 10 (≈ 0.0179 µM) | 0/10 | 167 | 0/10 | 183 | 1/10 | 200 | less potent than DNR | more active than DNR
